Measurements as given in the NIST ThermoML archive (doi:10.1016/j.tca.2006.05.019).
Several values for one entry are separate records, joined by “and”; a condition that tells them apart may be missing. Identical values can stand only once. ± gives the expanded uncertainty stated by the source.

Test: molar heat capacity at constant pressure
Settings: 101.33 kPa, Crystal, Vacuum adiabatic calorimetry

O=P([O-])([O-])[O-].[Lu+3] [lutetium phosphate]
Settings | molar heat capacity at constant pressure
6 K | 0.0357 ± 0.01 J/K/mol
6.51 K | 0.0482 ± 0.01 J/K/mol
7.08 K | 0.04711 ± 0.01 J/K/mol
7.62 K | 0.06861 ± 0.011 J/K/mol
8 K | 0.0845 ± 0.011 J/K/mol
8.12 K | 0.1033 ± 0.011 J/K/mol
8.6 K | 0.1229 ± 0.011 J/K/mol
9.16 K | 0.1232 ± 0.011 J/K/mol
9.76 K | 0.1438 ± 0.011 J/K/mol
10 K | 0.165 ± 0.011 J/K/mol
10.35 K | 0.1797 ± 0.011 J/K/mol
10.95 K | 0.1984 ± 0.012 J/K/mol
11.52 K | 0.2437 ± 0.012 J/K/mol
12 K | 0.286 ± 0.012 J/K/mol
12.05 K | 0.2931 ± 0.012 J/K/mol
12.7 K | 0.351 ± 0.013 J/K/mol
13.5 K | 0.4239 ± 0.013 J/K/mol
14 K | 0.455 ± 0.013 J/K/mol
14.29 K | 0.5003 ± 0.014 J/K/mol
15.07 K | 0.5881 ± 0.014 J/K/mol
15.96 K | 0.7241 ± 0.015 J/K/mol
16 K | 0.676 ± 0.015 J/K/mol
16.71 K | 0.8304 ± 0.016 J/K/mol
17.45 K | 0.9728 ± 0.016 J/K/mol
18 K | 0.962 ± 0.016 J/K/mol
18.21 K | 1.085 ± 0.017 J/K/mol
18.94 K | 1.201 ± 0.017 J/K/mol
19.66 K | 1.318 ± 0.018 J/K/mol
20 K | 1.32 ± 0.02 J/K/mol
21.37 K | 1.733 ± 0.02 J/K/mol
23.76 K | 2.354 ± 0.022 J/K/mol
25 K | 2.54 ± 0.02 J/K/mol
26.16 K | 3.067 ± 0.024 J/K/mol
28.57 K | 3.861 ± 0.025 J/K/mol
30 K | 4.26 ± 0.05 J/K/mol
30.99 K | 4.819 ± 0.05 J/K/mol
33.41 K | 5.784 ± 0.052 J/K/mol
35 K | 6.39 ± 0.05 J/K/mol
35.85 K | 6.862 ± 0.054 J/K/mol
38.3 K | 7.989 ± 0.057 J/K/mol
40 K | 8.83 ± 0.06 J/K/mol
40.76 K | 9.131 ± 0.059 J/K/mol
43.21 K | 10.48 ± 0.06 J/K/mol
45 K | 11.45 ± 0.06 J/K/mol
45.69 K | 11.91 ± 0.06 J/K/mol
48.16 K | 13.16 ± 0.07 J/K/mol
50 K | 14.18 ± 0.07 J/K/mol
50.64 K | 14.44 ± 0.07 J/K/mol
53.13 K | 15.87 ± 0.07 J/K/mol
55 K | 16.93 ± 0.07 J/K/mol
55.63 K | 17.16 ± 0.08 J/K/mol
58.13 K | 18.55 ± 0.08 J/K/mol
60 K | 19.67 ± 0.08 J/K/mol
60.65 K | 19.95 ± 0.08 J/K/mol
63.14 K | 21.38 ± 0.08 J/K/mol
65 K | 22.38 ± 0.09 J/K/mol
65.64 K | 22.73 ± 0.09 J/K/mol
68.13 K | 23.87 ± 0.09 J/K/mol
70 K | 25.05 ± 0.09 J/K/mol
70.62 K | 25.39 ± 0.09 J/K/mol
73.11 K | 26.96 ± 0.09 J/K/mol
75 K | 27.68 ± 0.1 J/K/mol
75.6 K | 28.21 ± 0.1 J/K/mol
78.1 K | 29.35 ± 0.1 J/K/mol
80 K | 30.26 ± 0.1 J/K/mol
80.6 K | 30.69 ± 0.1 J/K/mol
83.1 K | 31.8 ± 0.1 J/K/mol
83.67 K | 31.97 ± 0.1 J/K/mol
85 K | 32.8 ± 0.11 J/K/mol
87.39 K | 33.75 ± 0.11 J/K/mol
90 K | 35.28 ± 0.24 J/K/mol
91 K | 35.61 ± 0.24 J/K/mol
94.62 K | 37.52 ± 0.24 J/K/mol
95 K | 37.72 ± 0.24 J/K/mol
98.23 K | 39.26 ± 0.24 J/K/mol
100 K | 40.1 ± 0.24 J/K/mol
101.84 K | 41.01 ± 0.24 J/K/mol
105.45 K | 42.73 ± 0.24 J/K/mol
109.04 K | 44.39 ± 0.24 J/K/mol
110 K | 44.74 ± 0.24 J/K/mol
112.63 K | 45.93 ± 0.25 J/K/mol
116.21 K | 47.44 ± 0.25 J/K/mol
119.79 K | 49.06 ± 0.25 J/K/mol
120 K | 49.17 ± 0.25 J/K/mol
123.37 K | 50.6 ± 0.25 J/K/mol
126.95 K | 52.07 ± 0.25 J/K/mol
130 K | 53.39 ± 0.25 J/K/mol
130.52 K | 53.52 ± 0.25 J/K/mol
134.08 K | 54.89 ± 0.26 J/K/mol
134.32 K | 54.86 ± 0.26 J/K/mol
137.64 K | 56.24 ± 0.26 J/K/mol
137.89 K | 56.62 ± 0.26 J/K/mol
140 K | 57.42 ± 0.26 J/K/mol
141.14 K | 57.72 ± 0.26 J/K/mol
144.67 K | 59.01 ± 0.26 J/K/mol
148.2 K | 60.39 ± 0.26 J/K/mol
150 K | 61.25 ± 0.26 J/K/mol
151.73 K | 61.98 ± 0.26 J/K/mol
152.2 K | 62.31 ± 0.26 J/K/mol
155.77 K | 63.71 ± 0.26 J/K/mol
159.34 K | 65.02 ± 0.27 J/K/mol
160 K | 64.87 ± 0.27 J/K/mol
162.89 K | 66.21 ± 0.27 J/K/mol
166.44 K | 67.34 ± 0.27 J/K/mol
169.99 K | 68.5 ± 0.27 J/K/mol
170 K | 68.32 ± 0.27 J/K/mol
173.53 K | 69.66 ± 0.27 J/K/mol
177.02 K | 70.76 ± 0.27 J/K/mol
180 K | 71.58 ± 0.27 J/K/mol
180.54 K | 71.85 ± 0.27 J/K/mol
184.06 K | 72.87 ± 0.27 J/K/mol
187.57 K | 73.85 ± 0.27 J/K/mol
190 K | 74.68 ± 0.27 J/K/mol
191.08 K | 75.02 ± 0.28 J/K/mol
194.58 K | 76.04 ± 0.28 J/K/mol
198.07 K | 77.09 ± 0.28 J/K/mol
200 K | 77.61 ± 0.28 J/K/mol
201.56 K | 78.14 ± 0.28 J/K/mol
205.03 K | 78.99 ± 0.28 J/K/mol
208.5 K | 79.97 ± 0.28 J/K/mol
210 K | 80.41 ± 0.28 J/K/mol
211.96 K | 80.72 ± 0.28 J/K/mol
215.42 K | 81.51 ± 0.28 J/K/mol
218.87 K | 82.45 ± 0.28 J/K/mol
220 K | 83.06 ± 0.28 J/K/mol
222.31 K | 83.48 ± 0.28 J/K/mol
225.73 K | 84.25 ± 0.28 J/K/mol
229.14 K | 85.1 ± 0.29 J/K/mol
230 K | 85.6 ± 0.29 J/K/mol
233.68 K | 86.38 ± 0.29 J/K/mol
235.82 K | 87.08 ± 0.29 J/K/mol
237.13 K | 87.2 ± 0.3 J/K/mol
239.2 K | 87.62 ± 0.29 J/K/mol
240 K | 88.01 ± 0.29 J/K/mol
242.56 K | 88.31 ± 0.29 J/K/mol
245.94 K | 89.1 ± 0.29 J/K/mol
249.32 K | 90.16 ± 0.29 J/K/mol
250 K | 90.31 ± 0.29 J/K/mol
250.77 K | 90.59 ± 0.29 J/K/mol
254.14 K | 91.42 ± 0.29 J/K/mol
255.94 K | 91.8 ± 0.29 J/K/mol
259.22 K | 92.4 ± 0.3 J/K/mol
260 K | 92.51 ± 0.29 J/K/mol
260.67 K | 92.92 ± 0.29 J/K/mol
263.97 K | 93.72 ± 0.29 J/K/mol
267.27 K | 94.37 ± 0.29 J/K/mol
270 K | 94.6 ± 0.29 J/K/mol
270.55 K | 94.95 ± 0.3 J/K/mol
273.81 K | 95.59 ± 0.3 J/K/mol
277.04 K | 96.19 ± 0.3 J/K/mol
278.55 K | 96.28 ± 0.3 J/K/mol and 96.26 ± 0.3 J/K/mol
280 K | 96.61 ± 0.3 J/K/mol
280.25 K | 96.75 ± 0.3 J/K/mol
281.69 K | 96.92 ± 0.3 J/K/mol and 96.9 ± 0.3 J/K/mol
283.44 K | 97.38 ± 0.3 J/K/mol
284.59 K | 97.37 ± 0.3 J/K/mol
286.58 K | 97.91 ± 0.3 J/K/mol
287.72 K | 97.96 ± 0.3 J/K/mol
289.7 K | 98.45 ± 0.3 J/K/mol
290 K | 98.53 ± 0.3 J/K/mol
290.83 K | 98.55 ± 0.3 J/K/mol
292.79 K | 99.14 ± 0.3 J/K/mol
293.91 K | 99.28 ± 0.3 J/K/mol
295.89 K | 99.69 ± 0.3 J/K/mol
296.98 K | 99.82 ± 0.3 J/K/mol
298.92 K | 100.3 ± 0.3 J/K/mol
300 K | 100.4 ± 0.3 J/K/mol
300.03 K | 100.5 ± 0.3 J/K/mol
303.01 K | 100.9 ± 0.3 J/K/mol
306.01 K | 101.4 ± 0.3 J/K/mol
309.71 K | 101.9 ± 0.3 J/K/mol
310 K | 102.1 ± 0.3 J/K/mol
312.4 K | 102.4 ± 0.3 J/K/mol
315.23 K | 102.9 ± 0.3 J/K/mol
318.03 K | 103.6 ± 0.3 J/K/mol
320 K | 103.8 ± 0.3 J/K/mol
